Where two headings read alike, the source gives them in different places. *1 amine or outer side, *2 acyl side, *3 side chain or, on linkers, in order; H or OH if unused. Where a SMILES comes first, the peptide text is derived from it. Side-chain parts run from the residue outwards. The star is where a group is joined. C18 diacid = O=C(O)CCCCCCCCCCCCCCCCC(=O)*; γGlu = O=C(O)[C@H](CCC(=O)[*:2])N[*:1]; AEEA = NCCOCCOCC(=O)O
System: CD-1 mice
Format: in vivo
Conditions: mouse, in vivo, sc, 0.15 mg/kg
Procedure: Twenty-eight healthy female CD-1 mice aged 4-6 weeks are selected and divided into 4 groups, and they are injected subcutaneously with M4, M5, M7 and M0 at a dose of 0.15 mg/kg body weight.

CC[C@H](C)[C@H](NC(=O)[C@H](Cc1ccccc1)NC(=O)[C@H](CCC(=O)O)NC(=O)[C@H](CCCNC(=N)N)NC(=O)[C@H](C)NC(=O)[C@H](C)NC(=O)[C@H](CCCCNC(=O)COCCOCCNC(=O)COCCOCCNC(=O)CC[C@H](NC(=O)CCCCCCCCCCCCCCCCC(=O)O)C(=O)O)NC(=O)[C@H](CCC(=O)O)NC(=O)[C@H](CCC(=O)O)NC(=O)[C@H](CC(C)C)NC(=O)[C@H](Cc1ccc(O)cc1)NC(=O)[C@H](CO)NC(=O)[C@H](CO)NC(=O)[C@@H](NC(=O)[C@H](CC(=O)O)NC(=O)[C@H](CO)NC(=O)[C@@H](NC(=O)[C@H](Cc1ccccc1)NC(=O)[C@@H](NC(=O)CNC(=O)[C@H](CCC(=O)O)NC(=O)[C@@H](NC(=O)[C@@H](N)Cc1c[nH]cn1)C(C)C)[C@@H](C)O)[C@@H](C)O)C(C)C)C(=O)N[C@@H](C)C(=O)N[C@@H](Cc1c[nH]c2ccccc12)C(=O)N[C@@H](CC(C)C)C(=O)N[C@H](C(=O)N[C@@H](CCCNC(=N)N)C(=O)NCC(=O)N[C@@H](CCCNC(=N)N)C(=O)NCC(=O)O)C(C)C [M2, N-ε^23-[2-(2-[2-(2-[2-(2-[4-(17-carboxyheptadecanoylamino)-4(s)-carboxybutyrylamino]ethoxy)ethoxy]acetylamino)ethoxy]ethoxy)acetyl](Val^8Glu^22Lys^23Arg^26,34-GLP-1 (7-37)) peptide] (H-HVEGTFTSDVSSYLEEK([AEEA-AEEA-γGlu-C18 diacid])AAREFIAWLVRGRG-OH; N-terminus and C-terminus assumed)
Inhibition rate (blood glucose) (6 h): 34.29%
Inhibition rate (blood glucose) (30 h): 29.51%
Inhibition rate (blood glucose) (54 h): 27.23%
Inhibition rate (blood glucose) (78 h): 21.97%
Inhibition rate (blood glucose) (102 h): 10.15%
